Measured values taken from PubChem BioAssay (NCI).
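Values below derive from 48-hour exposures of cells grown in 96-well plates, with endpoints linearly interpolated between the two concentrations bracketing the appropriate inhibition level. GI50: concentration for 50% inhibition of growth. TGI: total growth inhibition.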

Key:
Assay in all cases: NCI-60 cell line screen, 48 h
SF-539 CNS = system: SF-539 CNS
HCC-2998 colon = system: HCC-2998 colon
U251 CNS = system: U251 CNS
HCT-116 colon = system: HCT-116 colon
HT29 colon = system: HT29 colon
SN12C renal = system: SN12C renal
SF-268 CNS = system: SF-268 CNS
SK-OV-3 ovarian = system: SK-OV-3 ovarian
SK-MEL-2 melanoma = system: SK-MEL-2 melanoma
LOX IMVI melanoma = system: LOX IMVI melanoma

SMILES | TGI (SF-539 CNS) | TGI (HCC-2998 colon) | TGI (U251 CNS) | TGI (HCT-116 colon) | TGI (HT29 colon) | TGI (SN12C renal) | TGI (SF-268 CNS) | TGI (SK-OV-3 ovarian) | TGI (SK-MEL-2 melanoma) | TGI (LOX IMVI melanoma) | GI50 (SF-539 CNS) | GI50 (HCC-2998 colon) | GI50 (U251 CNS) | GI50 (HCT-116 colon) | GI50 (HT29 colon) | GI50 (SN12C renal) | GI50 (SF-268 CNS) | GI50 (SK-OV-3 ovarian) | GI50 (SK-MEL-2 melanoma) | GI50 (LOX IMVI melanoma)
O=[N+]([O-])c1cccc(C=NC23CC4CC(CC(C4)C2)C3)c1 | > 100 µM | > 100 µM | > 100 µM | > 100 µM | > 100 µM | > 100 µM | > 100 µM | > 100 µM | > 100 µM | > 100 µM |  |  |  |  |  |  |  |  |  | 
COc1c(O)cc2c(c1CC=C(C)C)OC(=O)c1c(cc(O)c(CC=C(C)C)c1O)O2 | 8.52 µM | 5.72 µM | 7.75 µM | 7.82 µM | 8.7 µM | 7.37 µM | 7.82 µM | 8.01 µM | 8.58 µM | 7.68 µM | 4.46 µM | 2560 nM | 4.23 µM | 3910 nM | 4390 nM | 3.67 µM | 4.26 µM | 4.44 µM | 4.38 µM | 3.53 µM
COc1ccc(-c2nc(Nc3ccc(F)cc3)nc(Nc3ccc4c(c3)nc(C)n4Cc3ccccc3)n2)cc1 | > 100 µM | > 100 µM | > 100 µM | > 100 µM | 3.56 µM | > 100 µM | > 100 µM | > 100 µM | 11.9 µM | 57.6 µM | 4.99 µM | 5850 nM | 4.19 µM | 3000 nM | 1760 nM | 6.18 µM | 7.25 µM | 10.1 µM | 3.47 µM | 3.98 µM
N#C/C(=C\c1ccc([N+](=O)[O-])cc1)n1nnc2cc(F)c(F)cc21 | 3.27 µM | 3.36 µM | 3.27 µM | 3.01 µM | 3.64 µM | 3.61 µM | 12.1 µM | 11.4 µM | 5.58 µM | 2.97 µM | 1.74 µM | 1670 nM | 1.66 µM | 1540 nM | 1870 nM | 1.77 µM | 3.13 µM | 2.85 µM | 2.32 µM | 1.55 µM
CC(C)[C@]12O[C@H]1[C@@H]1O[C@]13[C@]1(O[C@H]1C[C@H]1C4=C(CC[C@@]13C)C(=O)OC4)[C@@H]2OC(=O)OC(C)(C)C | 0.294 µM | 0.064 µM | > 100 µM | > 100 µM |  | > 100 µM | 0.26 µM | > 100 µM | 0.0603 µM | > 100 µM | 0.0217 µM | 16.6 nM | 0.0253 µM | < 10.7 nM | < 12.1 nM | 0.0261 µM | 0.0251 µM | 0.0402 µM | 0.0185 µM | < 0.01 µM
COc1ccc(/C=C/C(=O)c2ccc(B(O)O)cc2)cc1O | > 79.6 µM | 18.6 µM | 27 µM | 10.1 µM | > 60.4 µM | > 77.7 µM | 78.8 µM | > 89.1 µM | 64.9 µM | 19.1 µM | 12.5 µM | 6460 nM | 9.37 µM | 2640 nM | 8220 nM | 20.1 µM | 19.9 µM | 22.2 µM | 26.1 µM | 4.66 µM
S=c1sc2sc(=S)sc2s1 | 57.8 µM | > 100 µM | 49 µM | > 100 µM | 78.9 µM | > 100 µM | > 100 µM | 33.9 µM | > 100 µM | > 100 µM |  |  |  |  |  |  |  |  |  | 
